The results in this text go back to patent US8987195B2 (priority 2012, dated 2015).

A word on the IC50: it is the concentration that inhibits the measured activity by half.

The target of the first assay is HCV NS3/4A protease genotype 1b (Hepatitis C virus genotype 1b, UniProt P26663). Kind of assay: HCV NS3/4A protease time-resolved fluorescence (TRF) assay, Ki against genotype 1b. The note with it: IC50 [gt-1b] (nM), NS3/4A genotype 1b, enzyme 0.2 nM. Type of assay: biochemical. Here is the method:
Measuring NS3/4A Inhibitory Activity (Ki) Against Genotype 1b, Against A156T Mutants and Against Genotype 3a
One assay for measuring inhibitory activity is HCV NS3 protease time-resolved fluorescence (TRF) assay as described below and in Mao et al., Anal. Biochem. 373:1-8, 2008 and International Patent Application Publication WO 2006/102087. A NS3 protease assay can be performed, for example, in a final volume of 20 μl assay buffer containing 50 mM HEPES, pH 7.5, 150 mM NaCl, 15% glycerol, 0.15% TRITON X-100, 10 mM DTT, and 0.1% PEG 8000. NS3 and NS4A protease is pre-incubated with various concentrations of inhibitors in DMSO for 30 min. The reaction is initiated by adding the TRF peptide substrate (final concentration 25 nM). NS3 mediated hydrolysis of the substrate was run for 2.5 hours at room temperature. Product fluorescence is detected using A Pherastar Plus plate reader (BMG) or Envision (Perkin Elmer Life and Analytical Sciences with excitation at 340 nm and emission at 615 nm using the appropriate delay time optimized for the europium fluorescence probe. Testing concentrations of different enzyme forms are selected to result in a signal to background ratio (S/B) of 10-30. IC50 values are derived using a standard four-parameter fit to the data. Ki values are derived from IC50 values using the following formula, IC50=Ki(1+[S]/KM), Eqn (1), where [S] is the concentration of substrate peptide in the reaction and KM is the Michaelis constant. See P. Gallinari et al., 38 BIOCHEM. 5620-32 (1999); P. Gallinari et al., 72 J. VIROL. 6758-69 (1998); M. Taliani et al., 240 ANAL. BIOCHEM. 60-67 (1996); Mao et al., Analytical Biochemistry 373: 1-8, 2008.
The assay described above was run against genotype 1b at a concentration of 0.2 nM, against A156T mutant strains at a concentration of 0.4 nM, and against genotype 3a at a concentration of 0.025 nM.
`COc1ccc2nc(C(F)(F)F)c3c(c2c1)OC[C@]1(C[C@H]2C(=O)N[C@]4(C(=O)NS(=O)(=O)C5(C)CC5)C[C@H]4/C=C\CCCCC[C@H](NC(=O)OC(C)(C)C)C(=O)N2C1)O3` [Example 8, tert-Butyl ((2′R,6′S,13a′S,14a′R,16a′S,Z)-9-methoxy-14a′-(((1-methylcyclopropyl)sulfonyl)carbamoyl)-5′,16′-dioxo-5-(trifluoromethyl)-3′,5′,6′,7′,8′,9′,10′,11′, 13a′,14′,14a′,15′,16′,16a′-tetradecahydro-1H,2H-spiro[[1,4]dioxino[2,3-c]quinoline-3,2′-cyclopropa[e]pyrrolo[1,2-a][1,4]diazacyclopentadecin]-6′-yl)carbamate]: the IC50 is 0.011 nM.

The compound `Cc1nc2ccc(C(F)(F)F)cc2c2c1O[C@]1(CC2)C[C@H]2C(=O)N[C@]3(C(=O)NS(=O)(=O)C4(C)CC4)C[C@H]3/C=C\CCCCC[C@H](NC(=O)OCC(C)C)C(=O)N2C1` [Example 253, 2-methylpropyl [(2R,6S,12Z,13aS,14aR,16aS)-5′-methyl-14a-{[(1-methylcyclopropyl)sulfonyl]carbamoyl}-5,16-dioxo-9′-(trifluoromethyl)-1,1′,2′,5,6,7,8,9,10,11,13a,14,14a,15,16,16a-hexadecahydrospiro[cyclopropa[e]pyrrolo[1,2-a][1,4]diazacyclopentadecine-2,3′-pyrano[2,3-c]quinolin]-6-yl]carbamate] displayed an IC50 of 0.014 nM.

Still in this assay, the particulars now being: IC50 [gt-1b] (nM), NS3/4A genotype 1b, enzyme 0.2 nM; K+ salt.
In the case of `COc1ccc2nc(C)c3c(c2c1)CC[C@]1(C[C@H]2C(=O)N[C@]4(C(=O)NS(=O)(=O)C5(C)CC5)C[C@H]4/C=C\CCCCC[C@H](NC(=O)OC4(C5CC5)CC4)C(=O)N2C1)O3` [Example 212, 1,1′-bi(cyclopropyl)-1-yl [(2R,6S,12Z,13aS,14aR,16aS)-9′-methoxy-5′-methyl-14a-{[(1-methylcyclopropyl)sulfonyl]carbamoyl}-5,16-dioxo-1,1′,2′,5,6,7,8,9,10,11,13a,14,14a,15,16,16a-hexadecahydrospiro[cyclopropa[e]pyrrolo[1,2-a][1,4]diazcyclopentadecine-2,3′-pyrano[2,3-c]quinolin]-6-yl]carbamate], the IC50 is 0.003 nM.

Consider `COc1ccc2nc(C)c3c(c2c1)CC[C@]1(C[C@H]2C(=O)N[C@]4(C(=O)NS(=O)(=O)C5(C)CC5)C[C@H]4/C=C\CCCCC[C@H](NC(=O)O[C@H](C)C(C)C)C(=O)N2C1)O3` [Example 214, (2R)-3-methylbutan-2-yl [(2R,6S,12Z,13aS,14aR,16aS)-9′-methoxy-5′-methyl-14a-{[(1-methylcyclopropyl)sulfonyl]carbamoyl}-5,16-dioxo-1,1′,2′,5,6,7,8,9,10,11,13a,14,14a,15,16,16a-hexadecahydrospiro[cyclopropa[e]pyrrolo[1,2-a][1,4]diazacyclopentadecine-2,3′-pyrano[2,3-c]quinolin]-6-yl]carbamate], for which the IC50 came to 0.005 nM.

As for `COc1ccc2nc(C)c3c(c2c1)CC[C@]1(C[C@H]2C(=O)N[C@]4(C(=O)NS(=O)(=O)C5(C)CC5)C[C@H]4/C=C\CCCCC[C@H](NC(=O)OC(C)(C)C)C(=O)N2C1)O3` [Example 9, tert-Butyl [(2R,6S,12Z,13aS,14aR,16aS)-9′-methoxy-5′-methyl-14a-{[(1-methylcyclopropyl)sulfonyl]carbamoyl}-5,16-dioxo-1,1′,2′,5,6,7,8,9,10,11,13a,14,14a,15, 16,16a-hexadecahydrospiro[cyclopropa[e]pyrrolo[1,2-a][1,4]diazacyclopentadecine-2,3′-pyrano[2,3-c]quinolin]-6-yl]carbamate], the IC50 stood at 0.006 nM.

For `COc1ccc2nc(C)c3c(c2c1)CC[C@]1(C[C@H]2C(=O)N[C@]4(C(=O)NS(=O)(=O)C5(C)CC5)C[C@H]4/C=C\CCCCC[C@H](NC(=O)OC4(C)CCC4)C(=O)N2C1)O3` [Example 186, 1-methylcyclobutyl [(2R,6S,12Z,13aS,14aR,16aS)-9′-methoxy-5′-methyl-14a-{[(1-methylcyclopropyl)sulfonyl]carbamoyl}-5,16-dioxo-1,1′,2′,5,6,7,8,9,10,11,13a,14,14a,15,16,16a-hexadecahydrospiro[cyclopropa[e]pyrrolo[1,2-a][1,4]diazacyclopentadecine-2,3′-pyrano[2,3-c]quinolin]-6-yl]carbamate], the IC50 turned out to be 0.009 nM.

Still in this assay, the particulars now being: IC50 [gt-1b], NS3/4A protease TRF assay, genotype 1b enzyme 0.2 nM.
In turn, `Cc1ccc2nc(C(F)(F)F)c3c(c2c1)CC[C@]1(C[C@H]2C(=O)N[C@]4(C(=O)NS(=O)(=O)C5(C)CC5)C[C@H]4/C=C\CCCCC[C@H](NC(=O)OCC(C)(C)C)C(=O)N2C1)O3` [Example 391, 2,2-dimethylpropyl [(2R,6S,12Z,13aS,14aR,16aS)-9′-methyl-14a-{[(1-methylcyclopropyl)sulfonyl]carbamoyl}-5,16-dioxo-5′-(trifluoromethyl)-1,1′,2′,5,6,7,8,9,10,11,13a,14,14a,15,16,16a-hexadecahydrospiro[cyclopropa[e]pyrrolo[1,2-a][1,4]diazacyclopentadecine-2,3′-pyrano[2,3-c]quinolin]-6-yl]carbamate] displayed an IC50 of 0.026 nM.

`[2H]C([2H])(F)Oc1ccc2nc(C)c3c(c2c1)[C@H](F)C[C@]1(C[C@H]2C(=O)N[C@]4(C(=O)NS(=O)(=O)C5(C)CC5)C[C@H]4/C=C\CCCCC[C@H](NC(=O)OC(C)(C)C)C(=O)N2C1)O3` [Example 397, tert-butyl [(1′R,2S,6S,12Z,13aS,14aR,16aS)-1′-fluoro-9′-{[fluoro(^2H2)methyl]oxy}-5′-methyl-14a-{[(1-methylcyclopropyl)sulfonyl]carbamoyl}-5,16-dioxo-1,1′,2′,5,6,7,8,9,10,11,13a,14,14a,15,16,16a-hexadecahydrospiro[cyclopropa[e]pyrrolo[1,2-a][1,4]diazacyclopentadecine-2,3′-pyrano[2,3-c]quinolin]-6-yl]carbamate]: the IC50 came to 0.006 nM.

`COc1ccc2nc(C(F)(F)F)c3c(c2c1)[C@](C)(O)C[C@]1(C[C@H]2C(=O)N[C@]4(C(=O)NS(=O)(=O)C5(C)CC5)C[C@H]4/C=C\CCCCC[C@H](NC(=O)OCC(C)C)C(=O)N2C1)O3` [Example 505, 2-methylpropyl [(1′R,2S,6S,12Z,13aS,14aR,16aS)-1′-hydroxy-9′-methoxy-1′-methyl-14a-{[(1-methylcyclopropyl)sulfonyl]carbamoyl}-5,16-dioxo-5′-(trifluoromethyl)-1,1′,2′,5,6,7,8,9,10,11,13a,14,14a,15,16,16a-hexadecahydrospiro[cyclopropa[e]pyrrolo[1,2-a][1,4]diazacyclopentadecine-2,3′-pyrano[2,3-c]quinolin]-6-yl]carbamate] had an IC50 of 0.016 nM.

Regarding `Cc1ccc2nc(C(F)(F)F)c3c(c2c1)CC[C@]1(C[C@H]2C(=O)N[C@]4(C(=O)NS(=O)(=O)C5(C)CC5)C[C@H]4/C=C\CCCCC[C@H](NC(=O)OC4CCCC4)C(=O)N2C1)O3` [Example 392, cyclopentyl [(2R,6S,12Z,13aS,14aR,16aS)-9′-methyl-14a-{[(1-methylcyclopropyl)sulfonyl]carbamoyl}-5,16-dioxo-5′-(trifluoromethyl)-1,1′,2′,5,6,7,8,9,10,11,13a,14,14a,15,16,16a-hexadecahydrospiro[cyclopropa[e]pyrrolo[1,2-a][1,4]diazacyclopentadecine-2,3′-pyrano[2,3-c]quinolin]-6-yl]carbamate], the midpoint of inhibition, the IC50, lay at 0.014 nM.

Staying with this assay, now noted: IC50 [gt-1b], NS3/4A protease TRF assay, genotype 1b enzyme 0.2 nM; K+ salt.
For `COc1ccc2nc(C(F)F)c3c(c2c1)CC[C@]1(C[C@H]2C(=O)N[C@]4(C(=O)NS(=O)(=O)C5(C)CC5)C[C@H]4/C=C\CCCCC[C@H](NC(=O)OCC4CCC4)C(=O)N2C1)O3` [Example 504, cyclobutylmethyl [(2R,6S,12Z,13aS,14aR,16aS)-5′-(difluoromethyl)-9′-methoxy-14a-{[(1-methylcyclopropyl)sulfonyl]carbamoyl}-5,16-dioxo-1,1′,2′,5,6,7,8,9,10,11,13a,14,14a,15,16,16a-hexadecahydrospiro[cyclopropa[e]pyrrolo[1,2-a][1,4]diazacyclopentadecine-2,3′-pyrano[2,3-c]quinolin]-6-yl]carbamate], the IC50 was 0.01 nM.

For the compound `COc1ccc2nc(C(F)F)c3c(c2c1)CC[C@]1(C[C@H]2C(=O)NC4(C(=O)NS(=O)(=O)C5(C)CC5)C[C@H]4/C=C\CCCCC[C@H](NC(=O)O[C@@H]4C[C@@H]5C[C@@H]5C4)C(=O)N2C1)O3` (stereo partly drawn) [Example 503, (1R,3r,5S)-bicyclo[3.1.0]hex-3-yl [(2R,6S,12Z,13aS,14aR,16aS)-5′-(difluoromethyl)-9′-methoxy-14a-{[(1-methylcyclopropyl)sulfonyl]carbamoyl}-5,16-dioxo-1,1′,2′,5,6,7,8,9,10,11,13a,14,14a,15,16,16a-hexadecahydrospiro[cyclopropa[e]pyrrolo[1,2-a][1,4]diazacyclopentadecine-2,3′-pyrano[2,3-c]quinolin]-6-yl]carbamate], the IC50 stood at 0.007 nM.
